This is an account of results in patent publication US11124541B2, “Chimeric melanocortin ligands and methods of use thereof” (REGENTS OF THE UNIVERSITY OF MINNESOTA, priority 2016, dated 2021).

Values joined by “and” are separate entries in the source; they are usually repeats but may differ in a detail not shown here. Equal values may be shown once. Read-outs that look alike come from different tables or passages of the source. Non-standard residues stand in square brackets, D forms with d. Residues, ends and D or L forms follow the SMILES beside them. No end group written: not given here. Dap = NC[C@H](N)C(=O)O

The target in series [1] is T1, mMC5R (Mus musculus, UniProt P41149). Also on record: expressed in transfected cells; host or cells: HEK293. The conditions noted are these: literature value; read-out: reported agonist potency at the mMC5R; cited from earlier work.
In series [2] the target is T2, mMC3R (Mus musculus, UniProt P33033). Also on record: expressed in transfected cells; host or cells: HEK293. To be noted: literature value; read-out: reported agonist potency at the mMC3R; cited from earlier work.
The target in series [3] is T3, mMC4R (Mus musculus, UniProt P56450). Also on record: expressed in transfected cells; host or cells: HEK293. The conditions noted are these: cited from earlier work; for EC50: literature value, read-out: reported agonist potency at the mMC4R; for reported selectivity for the mMC4R over the mMC3R: literature chimeric ligands.
Series [4] addresses T4, mMC1R (Mus musculus, UniProt Q01727). Further details: expressed in transfected cells; host or cells: HEK293. The conditions noted are these: literature value; read-out: reported agonist potency at the mMC1R; cited from earlier work.
For a further series, the system named is male mice. Put plainly: ICV or IT administration in male mice monitored in TSE metabolic cages. The class given is in vivo. An excerpt:
As described herein, compound 2 (c[Pro-His-DPhe-Arg-Trp-Dap-Ala-DPro] (SEQ ID NO:4)) has been administered in male mice. This compound has been administered via a cannula directly into the brain (ICV administration) or through an injection into the spinal cord (IT administration), at three different doses each administration route (2 nmol, 5 nmol, and 10 nmol). After compound administration, the mice were monitored in TSE metabolic cages, which record food intake, water intake, ambulatory activity (how many times a mouse breaks a light beam, which can give an indication of toxicity), respiratory-exchange ratio (RER, ratio between amount of CO2 produced in metabolism and O2 consumed, giving an indication if fat [RER value closer to 0.7] or carbohydrates [RER value closer to 1] is the energy source being utilized), and energy expenditure.

For series [5], the target named is T3, mMC4R. Further details: expressed in transfected cells; host or cells: HEK293. The conditions noted are these: AGRP intrinsic potency; cited from earlier work.
Series [6] addresses T3, mMC4R. Put plainly: cAMP AlphaScreen agonist assay, HEK293 cells stably expressing mouse MC4R. For orientation: Bead proximity is the source of the signal in Alpha formats.
The target in series [7] is T4, mMC1R. Put plainly: cAMP AlphaScreen agonist assay, HEK293 cells stably expressing mouse MC1R. To be noted: read-out: mMC1R EC50; agonist, cAMP.
The target of series [8] is T2, mMC3R. Put plainly: cAMP AlphaScreen agonist assay, HEK293 cells stably expressing mouse MC3R. To be noted: read-out: mMC3R EC50; agonist, cAMP.
Series [9] addresses T1, mMC5R. Put plainly: cAMP AlphaScreen agonist assay, HEK293 cells stably expressing mouse MC5R. To be noted: read-out: mMC5R EC50; agonist, cAMP.
Where [10] appears, read: compound versus vehicle treated animals.

T1 sequence (P41149 whole entry): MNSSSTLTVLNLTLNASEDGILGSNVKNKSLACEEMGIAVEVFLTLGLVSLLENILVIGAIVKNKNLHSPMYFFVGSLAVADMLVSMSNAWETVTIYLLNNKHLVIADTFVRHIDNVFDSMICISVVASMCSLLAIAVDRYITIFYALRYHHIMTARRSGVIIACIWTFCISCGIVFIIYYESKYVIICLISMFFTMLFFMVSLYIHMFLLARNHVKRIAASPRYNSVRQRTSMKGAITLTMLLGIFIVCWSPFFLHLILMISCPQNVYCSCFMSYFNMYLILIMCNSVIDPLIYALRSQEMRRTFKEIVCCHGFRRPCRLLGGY
T3 sequence (P56450 whole entry): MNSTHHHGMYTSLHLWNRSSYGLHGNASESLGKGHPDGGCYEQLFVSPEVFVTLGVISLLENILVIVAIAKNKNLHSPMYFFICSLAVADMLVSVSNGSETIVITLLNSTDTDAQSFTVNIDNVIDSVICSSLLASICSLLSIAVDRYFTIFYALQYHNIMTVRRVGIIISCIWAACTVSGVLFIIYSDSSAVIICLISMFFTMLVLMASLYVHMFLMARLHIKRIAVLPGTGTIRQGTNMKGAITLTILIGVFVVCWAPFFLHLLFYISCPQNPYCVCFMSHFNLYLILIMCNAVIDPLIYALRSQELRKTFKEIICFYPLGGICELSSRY
T2 sequence (P33033 whole entry): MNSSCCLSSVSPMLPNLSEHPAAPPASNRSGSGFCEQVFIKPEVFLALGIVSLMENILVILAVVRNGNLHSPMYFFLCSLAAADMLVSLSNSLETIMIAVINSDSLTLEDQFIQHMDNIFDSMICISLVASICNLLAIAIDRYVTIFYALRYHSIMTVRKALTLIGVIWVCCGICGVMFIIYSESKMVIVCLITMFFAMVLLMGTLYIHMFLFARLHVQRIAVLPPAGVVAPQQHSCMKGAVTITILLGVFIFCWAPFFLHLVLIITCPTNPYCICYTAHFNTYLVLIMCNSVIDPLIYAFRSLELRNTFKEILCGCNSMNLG
T4 sequence (Q01727 whole entry): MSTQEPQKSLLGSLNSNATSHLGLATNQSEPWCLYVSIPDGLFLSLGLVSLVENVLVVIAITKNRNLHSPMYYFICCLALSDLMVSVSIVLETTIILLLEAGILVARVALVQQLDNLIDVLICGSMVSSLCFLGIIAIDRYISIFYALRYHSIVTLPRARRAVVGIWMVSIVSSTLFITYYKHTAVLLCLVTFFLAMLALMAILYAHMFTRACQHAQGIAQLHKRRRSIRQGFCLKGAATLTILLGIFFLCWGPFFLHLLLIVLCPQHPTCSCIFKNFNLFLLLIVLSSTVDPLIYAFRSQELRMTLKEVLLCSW

As for Ac-mini-(His-DPhe-Arg-Trp)hAGRP-NH2, the EC50 on mMC5R [1] is 0.6 nM and 0.56 nM; at mMC3R [2], 30 nM; on mMC4R [3], 1.4 nM; on mMC1R [4], 0.16 nM.

Consider `C[C@@H]1NC(=O)[C@H](CN)NC(=O)[C@H](Cc2c[nH]c3ccccc23)NC(=O)[C@H](CCCNC(=N)N)NC(=O)[C@@H](Cc2ccccc2)NC(=O)[C@H](Cc2c[nH]cn2)NC(=O)[C@@H]2CCCN2C(=O)[C@H]2CCCN2C1=O` [MDE6-5-2c, c[Pro-His-DPhe-Arg-Trp-Dap-Ala-DPro]] (cyclo(H[dF]RW[Dap]A[dP]P)), for which the “cumulative food intake following ICV administration, 10 nmol” value in the series on male mice (ICV, 10 nmol, 72 h) is “decreased food intake through 72 h”. Moreover, the “Respiratory Exchange Ratio (RER) effect, ICV 10 nmol” value in the series on male mice (ICV, 10 nmol, first 24 h, versus lower doses) is reported as “more robust”. The “cumulative food intake following ICV administration” value with male mice (ICV, 2, 5, 10 nmol, first 24 h, dose response) was “further decreased food intake”. Also, the “Respiratory Exchange Ratio (RER), ICV 2 and 5 nmol” value with male mice (ICV, 2 and 5 nmol, first 24 h) was “decreased RER compared to vehicle control”. Further, in the series with male mice (IT), the “Respiratory Exchange Ratio (RER) effect, IT administration” value is listed as “more modest effect”. Besides, the “cumulative food intake following IT administration” value in the series with male mice (IT, 2, 5, 10 nmol, not dose-responsive) is listed as “decreased food intake was observed”. Moreover, in the series on male mice (setting [10]), the energy expenditure result is “not different” and the water intake result is “not different”. The “duration of effects on RER following a single dose” value in the series on male mice (single dose, all cases) amounted to 24 h.

Regarding “Tyr-c[Cys-His-DPhe-Arg-Trp-Asn-Ala-Phe-Cys]-Tyr-NH2 (FRWNAFC; not fully specified; Tyr-Cys-His, disulfide, Tyr-NH2; printed: Phe-Arg-Trp-Asn-Ala-Phe-Cys) [previously reported disulfide bridged AGRP/NDP-MSH chimeric ligand]”, the EC50 with mMC5R [1] was 2 nM; with mMC3R [2], 2 nM; in the series with mMC4R [3] it was 0.3 nM; in the series with mMC1R [4] it was 0.35 nM. The “reported selectivity for the mMC4R over the mMC3R” value with mMC4R [3] is recorded as 7 fold.

On to “Tyr-c[Asp-His-DPhe-Arg-Trp-Asn-Ala-Phe-Dap]-Tyr-NH2 (FRWNAF; Tyr-Asp-His, Dap lactam, Tyr-NH2; printed: Phe-Arg-Trp-Asn-Ala-Phe-) [previously reported lactam bridged AGRP/NDP-MSH chimeric ligand]”, for which the EC50 in the series with mMC5R [1] was 0.5 nM; in the series with mMC3R [2], 1 nM; in the series with mMC4R [3], 0.2 nM; in the series with mMC1R [4], 0.2 nM. For the same molecule, the “reported selectivity for the mMC4R over the mMC3R” value with mMC4R [3] is reported as 5 fold.

On to “AGRP: agouti-related protein, naturally occurring melanocortin antagonist (SSRRCVRLHESCLGQQVPCCDPCATCYCRFFNAFCYCRKLGTAMNPCSRT; ends and bridges not checked; cysteine pairing not given here; UniProt O00253 83-132, looked up)”, for which the “lower potency at the mMC3R versus the mMC4R” value with mMC4R [5] was roughly 10 fold.

`C[C@@H]1NC(=O)[C@H](CN)NC(=O)[C@H](Cc2c[nH]c3ccccc23)NC(=O)[C@H](CCCNC(=N)N)NC(=O)[C@@H](Cc2ccccc2)NC(=O)[C@H](Cc2cnc[nH]2)NC(=O)[C@@H]2CCCN2C(=O)[C@H]2CCCN2C1=O` [MDE6-5-2c, c[Pro-His-DPhe-Arg-Trp-Dap-Ala-DPro]] (cyclo(H[dF]RW[Dap]A[dP]P)): at mMC4R [6] (agonist potency), the “selectivity for the mMC4R over the mMC3R” value is 25 fold. Besides, the EC50 on mMC4R [6] (read-out: mMC4R EC50, agonist, cAMP) turned out to be 1.6 nM; on mMC1R [7] it was 1.1 nM; at mMC3R [8] it was 40 nM; at mMC5R [9], 0.3 nM. Also, the ambulatory activity entry in the series on male mice (setting [10]) was “not different”.
